Experimental data: patent publication EP0397424A2, “Multiple analysis system” (Biotrack, Inc., priority 1989, dated 1990)

System: red cells
Assay: Red cell lysis by detergent-saturated polyethylene reagent pads (completeness of lysis, red cell fragments)
Format: cell-based
Parameters: key: + = complete lysis or absence of red cell fragments; - = incomplete lysis or presence of red cell fragments
Settings: blood passed through reagent pad saturated with detergent solution
Method: Centered polyethylene reagent pads were saturated with a detergent solution, and the ability of the pad to provide completely lysed blood not containing any red cell fragments was analyzed. Since this sample is also used in the blood donor cartridge as described above to provide sample that is used in an agglutination reaction, inhibition of the agglutination reaction was also measured. Inhibition of agglutination was done subjectively, with 0 indicating little or no inhibition of agglutination and 5 representing the maximum amount of inhibition (essentially no agglutination under normal agglutinating conditions).
Other combinations of detergents can be determined in the same manner by measuring both red cell lysis and inhibition of agglutination and selecting a combination of detergents that provides the desired complete lysis with a minimum of inhibition.

**Q.** For mellitin, which “Red Cell Fragments” value (+ = absence of fragments) is on record?
**A.** -

**Q.** And the “Incomplete RBC lysis” value (+ = complete lysis)?
**A.** +
